From ChEMBL document CHEMBL5236590, “Discovery of Novel N-(5-(Pyridin-3-yl)-1H-indazol-3-yl)benzamide Derivatives as Potent Cyclin-Dependent Kinase 7 Inhibitors for the Treatment of Autosomal Dominant Polycystic Kidney Disease” (J Med Chem, 2022)
The source made the active and inactive calls. The calls are words filed in the database; no cut-off is given here.

Assays:
[1] = target: T1, Cyclin-dependent kinase 7 (Homo sapiens, UniProt P50613); assay: Inhibition of CDK7 (unknown origin) assessed as phosphorylation of ULight 4EBP1 peptide substrate measured after 2 hrs by FRET-based LANCE Ultra KinSelect assay
T1 sequence (P50613 whole entry): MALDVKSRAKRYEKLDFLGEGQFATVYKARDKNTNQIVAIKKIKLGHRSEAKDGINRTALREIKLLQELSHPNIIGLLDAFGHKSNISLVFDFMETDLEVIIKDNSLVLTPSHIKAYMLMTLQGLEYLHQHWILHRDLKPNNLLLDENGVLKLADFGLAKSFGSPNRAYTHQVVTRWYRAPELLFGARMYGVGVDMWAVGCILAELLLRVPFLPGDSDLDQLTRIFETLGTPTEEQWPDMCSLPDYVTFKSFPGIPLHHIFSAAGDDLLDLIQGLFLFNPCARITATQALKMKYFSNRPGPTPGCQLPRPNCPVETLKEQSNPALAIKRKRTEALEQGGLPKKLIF

[2] = target: Cyclin-dependent kinase 2 (Homo sapiens, UniProt P24941); assay: Inhibition of CDK2 (unknown origin) assessed as phosphorylation of ULight 4EBP1 peptide substrate measured after 2 hrs by FRET-based LANCE Ultra KinSelect assay
[3] = target: T1, Cyclin-dependent kinase 7; assay: Irreversible inhibition of CDK7 (unknown origin) assessed as activity measured after 3 hrs by jump dilution method
[4] = target: Cyclin-dependent kinase 6 (Homo sapiens, UniProt Q00534); assay: Inhibition of CDK6 (unknown origin)
Cyclin-dependent kinase 6, sequence (Q00534 whole entry): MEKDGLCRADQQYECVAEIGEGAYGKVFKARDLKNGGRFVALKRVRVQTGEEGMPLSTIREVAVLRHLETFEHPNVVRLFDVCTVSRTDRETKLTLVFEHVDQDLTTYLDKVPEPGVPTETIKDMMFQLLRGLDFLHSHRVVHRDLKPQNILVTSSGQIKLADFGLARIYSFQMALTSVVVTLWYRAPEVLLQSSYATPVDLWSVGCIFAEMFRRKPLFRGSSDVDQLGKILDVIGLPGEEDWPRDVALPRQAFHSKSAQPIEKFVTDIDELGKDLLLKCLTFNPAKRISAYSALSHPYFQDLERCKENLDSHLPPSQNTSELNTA

[5] = target: T1, Cyclin-dependent kinase 7; assay: Inhibition of CDK7 (unknown origin)
[6] = target: Cyclin-dependent kinase 9 (Homo sapiens, UniProt P50750); assay: Inhibition of CDK9 (unknown origin)
Cyclin-dependent kinase 9, sequence (P50750 whole entry): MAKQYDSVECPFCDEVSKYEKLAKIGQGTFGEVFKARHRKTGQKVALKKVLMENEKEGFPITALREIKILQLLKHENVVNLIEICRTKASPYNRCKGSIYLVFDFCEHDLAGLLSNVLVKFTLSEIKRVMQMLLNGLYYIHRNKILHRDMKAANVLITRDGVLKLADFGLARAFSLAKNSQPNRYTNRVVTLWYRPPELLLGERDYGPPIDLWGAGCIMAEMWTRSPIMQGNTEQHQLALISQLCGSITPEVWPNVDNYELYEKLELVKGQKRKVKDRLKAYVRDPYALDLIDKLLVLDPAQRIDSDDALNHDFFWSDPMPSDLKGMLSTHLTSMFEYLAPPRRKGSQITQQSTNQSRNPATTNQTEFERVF

[7] = target: Cyclin-dependent kinase 12 (Homo sapiens, UniProt Q9NYV4); assay: Inhibition of CDK12 (unknown origin)
[8] = target: Glycogen synthase kinase-3 beta (Homo sapiens) (UniProt P49841); assay: Inhibition of human full length GSK3beta expressed in mammalian system at 1 uM by KINOMEscan analysis relative to control
[9] = target: Mitogen-activated protein kinase kinase kinase 7 (Homo sapiens) (UniProt O43318); assay: Inhibition of human partial length TAK1 (M1/Q303) expressed in mammalian system at 1 uM by KINOMEscan analysis relative to control
[10] = target: Protein kinase C theta type (Homo sapiens) (UniProt Q04759); assay: Inhibition of human partial length TPKCtheta (L350/S706) expressed in bacterial system at 1 uM by KINOMEscan analysis relative to control
[11] = target: Aurora kinase A (Homo sapiens) (UniProt O14965); assay: Inhibition of human partial length Aurora-A (E122/K401) expressed in mammalian system at 1 uM by KINOMEscan analysis relative to control
Aurora kinase A (Homo sapiens), sequence (O14965 whole entry): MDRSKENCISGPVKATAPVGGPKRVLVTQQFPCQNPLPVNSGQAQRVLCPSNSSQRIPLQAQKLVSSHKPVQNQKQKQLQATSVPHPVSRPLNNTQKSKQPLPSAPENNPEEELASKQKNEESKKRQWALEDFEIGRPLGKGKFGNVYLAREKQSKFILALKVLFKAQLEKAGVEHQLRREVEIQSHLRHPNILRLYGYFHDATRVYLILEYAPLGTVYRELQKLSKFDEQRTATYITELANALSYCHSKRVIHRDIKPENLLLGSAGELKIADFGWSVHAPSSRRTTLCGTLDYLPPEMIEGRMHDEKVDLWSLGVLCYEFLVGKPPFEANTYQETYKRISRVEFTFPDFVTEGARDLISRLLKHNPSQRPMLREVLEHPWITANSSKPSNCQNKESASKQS

[12] = target: Serine/threonine-protein kinase pim-1 (Homo sapiens) (UniProt P11309); assay: Inhibition of human partial length wild type Pim-1 (M1/E291) expressed in bacterial system at 1 uM by KINOMEscan analysis relative to control
Serine/threonine-protein kinase pim-1 (Homo sapiens), sequence (P11309 whole entry, looked up): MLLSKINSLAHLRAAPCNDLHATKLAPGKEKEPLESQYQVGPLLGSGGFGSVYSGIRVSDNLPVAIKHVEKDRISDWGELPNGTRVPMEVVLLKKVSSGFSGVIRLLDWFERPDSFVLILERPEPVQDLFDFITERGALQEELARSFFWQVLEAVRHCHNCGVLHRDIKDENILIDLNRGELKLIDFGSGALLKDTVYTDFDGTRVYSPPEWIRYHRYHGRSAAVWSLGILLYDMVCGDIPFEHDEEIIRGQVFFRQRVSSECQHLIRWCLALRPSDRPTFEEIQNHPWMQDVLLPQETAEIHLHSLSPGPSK

[13] = target: Tyrosine-protein kinase ABL1 (Homo sapiens) (UniProt P00519); assay: Inhibition of human partial length Ab1 (S229/K512) expressed in mammalian system at 1 uM by KINOMEscan analysis relative to control
[14] = target: Mitogen-activated protein kinase kinase kinase 5 (Homo sapiens) (UniProt Q99683); assay: Inhibition of human partial length wild type ASK1 expressed in bacterial system at 1 uM by KINOMEscan analysis relative to control
Mitogen-activated protein kinase kinase kinase 5 (Homo sapiens), sequence (Q99683 whole entry): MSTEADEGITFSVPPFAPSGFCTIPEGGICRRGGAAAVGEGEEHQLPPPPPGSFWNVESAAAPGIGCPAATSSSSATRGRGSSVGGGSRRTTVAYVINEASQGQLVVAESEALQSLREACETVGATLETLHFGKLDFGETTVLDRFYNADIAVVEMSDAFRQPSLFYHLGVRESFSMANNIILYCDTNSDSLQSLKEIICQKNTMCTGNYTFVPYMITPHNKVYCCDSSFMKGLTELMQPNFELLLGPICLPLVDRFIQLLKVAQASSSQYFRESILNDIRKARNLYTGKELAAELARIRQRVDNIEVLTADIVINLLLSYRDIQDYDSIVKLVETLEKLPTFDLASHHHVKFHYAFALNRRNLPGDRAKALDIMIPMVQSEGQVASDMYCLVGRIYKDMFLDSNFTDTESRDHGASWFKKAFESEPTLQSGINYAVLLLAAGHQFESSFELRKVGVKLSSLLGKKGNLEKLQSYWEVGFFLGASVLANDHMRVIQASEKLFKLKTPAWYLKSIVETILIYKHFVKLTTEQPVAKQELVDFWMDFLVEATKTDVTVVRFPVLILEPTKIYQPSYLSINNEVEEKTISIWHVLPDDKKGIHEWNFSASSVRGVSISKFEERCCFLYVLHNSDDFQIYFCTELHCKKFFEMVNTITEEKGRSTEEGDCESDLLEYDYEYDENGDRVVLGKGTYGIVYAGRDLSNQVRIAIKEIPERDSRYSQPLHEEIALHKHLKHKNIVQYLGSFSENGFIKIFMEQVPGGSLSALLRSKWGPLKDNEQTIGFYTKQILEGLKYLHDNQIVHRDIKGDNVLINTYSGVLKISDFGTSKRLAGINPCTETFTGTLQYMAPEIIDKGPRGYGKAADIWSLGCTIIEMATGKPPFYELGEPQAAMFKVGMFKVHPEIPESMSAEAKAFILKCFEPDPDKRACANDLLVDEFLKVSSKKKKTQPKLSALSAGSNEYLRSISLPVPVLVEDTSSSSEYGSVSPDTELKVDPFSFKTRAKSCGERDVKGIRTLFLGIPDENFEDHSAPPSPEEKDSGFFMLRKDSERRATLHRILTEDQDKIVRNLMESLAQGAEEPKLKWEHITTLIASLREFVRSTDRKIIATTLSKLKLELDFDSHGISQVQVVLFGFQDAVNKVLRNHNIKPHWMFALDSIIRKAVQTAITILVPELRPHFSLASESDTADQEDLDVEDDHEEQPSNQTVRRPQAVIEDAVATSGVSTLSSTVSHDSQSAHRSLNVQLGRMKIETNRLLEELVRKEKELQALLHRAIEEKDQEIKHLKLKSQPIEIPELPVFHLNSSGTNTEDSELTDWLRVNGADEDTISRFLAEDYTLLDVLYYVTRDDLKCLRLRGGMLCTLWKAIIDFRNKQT

[15] = target: Insulin-like growth factor 1 receptor (Homo sapiens) (UniProt P08069); assay: Inhibition of human partial length wild type IGF-1R (L972/D1294) expressed in bacterial system at 1 uM by KINOMEscan analysis relative to control
[16] = target: Inhibitor of nuclear factor kappa-B kinase subunit alpha (Homo sapiens) (UniProt O15111); assay: Inhibition of human full length wild type IKKalpha expressed in mammalian system at 1 uM by KINOMEscan analysis relative to control
[17] = target: Interleukin-1 receptor-associated kinase 4 (Homo sapiens) (UniProt Q9NWZ3); assay: Inhibition of human partial length wild type IRAK4 expressed in mammalian system at 1 uM by KINOMEscan analysis relative to control
Interleukin-1 receptor-associated kinase 4 (Homo sapiens), sequence (Q9NWZ3 whole entry): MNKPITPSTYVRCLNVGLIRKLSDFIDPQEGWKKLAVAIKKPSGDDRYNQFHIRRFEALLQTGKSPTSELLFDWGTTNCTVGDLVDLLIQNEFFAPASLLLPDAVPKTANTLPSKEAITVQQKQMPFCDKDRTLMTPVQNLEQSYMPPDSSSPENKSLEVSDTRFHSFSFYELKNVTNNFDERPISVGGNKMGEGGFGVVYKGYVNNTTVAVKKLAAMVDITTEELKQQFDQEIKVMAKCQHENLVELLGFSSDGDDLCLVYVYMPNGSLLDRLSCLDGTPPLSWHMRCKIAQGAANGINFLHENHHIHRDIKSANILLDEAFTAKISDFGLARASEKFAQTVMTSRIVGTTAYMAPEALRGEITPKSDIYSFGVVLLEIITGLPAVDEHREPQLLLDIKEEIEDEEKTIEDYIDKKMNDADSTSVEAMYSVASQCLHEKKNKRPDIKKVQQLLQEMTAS

[18] = target: Tyrosine-protein kinase Lyn (Homo sapiens) (UniProt P07948); assay: Inhibition of human partial length wild type Lyn (C219/Q511) expressed in bacterial system at 1 uM by KINOMEscan analysis relative to control
[19] = target: MAP kinase-activated protein kinase 2 (Homo sapiens) (UniProt P49137); assay: Inhibition of human partial length wild type MAPKAP-K2 expressed in bacterial system at 1 uM by KINOMEscan analysis relative to control
MAP kinase-activated protein kinase 2 (Homo sapiens), sequence (P49137 whole entry, looked up): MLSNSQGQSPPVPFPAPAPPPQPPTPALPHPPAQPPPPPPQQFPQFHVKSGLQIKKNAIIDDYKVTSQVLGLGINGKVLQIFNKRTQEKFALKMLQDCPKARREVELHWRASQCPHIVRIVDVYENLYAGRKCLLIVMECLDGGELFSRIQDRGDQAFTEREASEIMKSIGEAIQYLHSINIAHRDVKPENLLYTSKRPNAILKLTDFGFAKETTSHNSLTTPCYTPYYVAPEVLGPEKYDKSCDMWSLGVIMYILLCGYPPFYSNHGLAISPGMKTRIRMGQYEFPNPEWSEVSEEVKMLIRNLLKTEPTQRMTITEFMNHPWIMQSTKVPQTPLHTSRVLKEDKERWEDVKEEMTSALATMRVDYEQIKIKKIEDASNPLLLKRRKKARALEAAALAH

[20] = target: Mitogen-activated protein kinase kinase kinase 9 (Homo sapiens) (UniProt P80192); assay: Inhibition of human partial length wild type MLK1 expressed in bacterial system at 1 uM by KINOMEscan analysis relative to control
[21] = target: Serine/threonine-protein kinase 4 (Homo sapiens) (UniProt Q13043); assay: Inhibition of human full length wild type MST1 expressed in mammalian system at 1 uM by KINOMEscan analysis relative to control
[22] = target: Ribosomal protein S6 kinase beta-1 (Homo sapiens) (UniProt P23443); assay: Inhibition of human partial length wild type p70S6K (M1/S421) expressed in mammalian system at 1 uM by KINOMEscan analysis relative to control
Ribosomal protein S6 kinase beta-1 (Homo sapiens), sequence (P23443 whole entry, looked up): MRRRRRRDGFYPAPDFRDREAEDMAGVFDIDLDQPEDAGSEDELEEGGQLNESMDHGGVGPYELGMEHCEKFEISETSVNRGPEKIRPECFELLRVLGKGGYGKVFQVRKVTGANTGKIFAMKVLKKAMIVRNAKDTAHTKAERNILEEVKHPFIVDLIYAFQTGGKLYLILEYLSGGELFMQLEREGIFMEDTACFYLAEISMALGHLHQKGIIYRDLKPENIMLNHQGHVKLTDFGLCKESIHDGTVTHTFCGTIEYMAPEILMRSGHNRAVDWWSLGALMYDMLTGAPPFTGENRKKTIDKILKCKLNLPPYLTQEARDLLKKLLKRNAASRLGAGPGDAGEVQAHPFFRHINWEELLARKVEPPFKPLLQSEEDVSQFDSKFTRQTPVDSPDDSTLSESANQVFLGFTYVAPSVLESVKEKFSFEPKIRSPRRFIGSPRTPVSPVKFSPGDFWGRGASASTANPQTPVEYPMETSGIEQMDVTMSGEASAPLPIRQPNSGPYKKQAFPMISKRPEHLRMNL

[23] = target: cAMP-dependent protein kinase catalytic subunit alpha (Homo sapiens) (UniProt P17612); assay: Inhibition of human recombinant PKA expressed in Escherichia coli at 1 uM by KINOMEscan analysis relative to control
[24] = target: RAC-alpha serine/threonine-protein kinase (Homo sapiens) (UniProt P31749); assay: Inhibition of PKBalpha (unknown origin) at 1 uM relative to control
RAC-alpha serine/threonine-protein kinase (Homo sapiens), sequence (P31749 whole entry): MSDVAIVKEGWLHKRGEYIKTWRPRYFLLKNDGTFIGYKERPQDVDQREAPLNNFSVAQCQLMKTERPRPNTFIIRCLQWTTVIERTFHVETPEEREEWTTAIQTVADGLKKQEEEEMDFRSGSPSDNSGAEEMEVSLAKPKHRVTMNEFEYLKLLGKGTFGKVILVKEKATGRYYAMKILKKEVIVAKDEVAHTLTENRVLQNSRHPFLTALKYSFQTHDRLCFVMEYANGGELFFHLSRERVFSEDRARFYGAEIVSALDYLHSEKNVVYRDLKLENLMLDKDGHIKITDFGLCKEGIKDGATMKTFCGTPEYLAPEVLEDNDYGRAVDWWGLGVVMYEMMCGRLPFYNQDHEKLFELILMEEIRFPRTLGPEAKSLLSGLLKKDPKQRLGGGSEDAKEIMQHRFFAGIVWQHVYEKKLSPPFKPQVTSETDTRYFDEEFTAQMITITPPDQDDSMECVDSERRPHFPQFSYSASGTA

Homo sapiens = organism: Homo sapiens; assay: Inhibition of human partial length wild type PRAK (M1/R415) expressed in mammalian system at 1 uM by KINOMEscan analysis relative to control
[25] = target: Mitogen-activated protein kinase 14 (Homo sapiens) (UniProt Q16539); assay: Inhibition of full length human recombinant SAPK2a at 1 uM by radiometric assay
[26] = target: SRSF protein kinase 1 (Homo sapiens) (UniProt Q96SB4); assay: Inhibition of human full length wild type SRPK1 expressed in mammalian system at 1 uM by KINOMEscan analysis relative to control
[27] = target: PI3K p110 beta/p85 alpha (Homo sapiens) (UniProt P27986+P42338); assay: Inhibition of P13 kinase p110beta/p85alpha (unknown origin) at 1 uM relative to control; assay type: protein-complex assay
[28] = target: PI3-kinase p110-delta/p85-alpha (Homo sapiens) (UniProt P27986+O00329); assay: Inhibition of PI3 Kinase p110delta/p85alpha (unknown origin) at 1 uM relative to control; assay type: protein-complex assay
[29] = Observed AUC (infinitive) in ICR mouse at 5 mg/kg, iv single dose measured upto 24 hrs; assay type: ADME, organism-based; set-up: dose 5 mg/kg, time < 24 hrs, route iv; settings: in vivo
[30] = Half life in ICR mouse at 5 mg/kg, iv single dose measured upto 24 hrs; assay type: ADME, organism-based; settings: in vivo
[31] = Observed clearance in ICR mouse at 5 mg/kg, iv single dose measured upto 24 hrs; assay type: ADME, organism-based; settings: in vivo
[32] = Apparent permeability across basolateral to apical side in human Caco-2 cells measured after 120 mins by LC-MS/MS analysis; assay type: ADME, cell-based
Mus musculus [33] = assay: Reduction in cyst size in kidney-specific Pkd1 knockout ADPKD mouse model assessed as renal cystic index at 5 mg/kg by HE staining analysis; assay type: functional, organism-based
Mus musculus [34] = assay: Reduction in AMPD3 protein expression in kidney-specific Pkd1 knockout ADPKD mouse model assessed as protein expression in cyst-lining epithelial cell at 5 mg/kg by Western blot analysis; assay type: functional, organism-based
[35] = Bioavailability in ICR mouse at 5 mg/kg, sc single dose measured upto 24 hrs; assay type: ADME, organism-based; settings: in vivo

In the case of `C=CC(=O)Nc1ccc(C(=O)Nc2n[nH]c3ccc(-c4cncc(NC[C@@H](O)c5ccccc5)c4)cc23)cc1`, the IC50 [1] is reported as 4 nM, the IC50 [2] is reported as 823 nM and the inhibition [3] is reported as “Active”. For the same compound, the IC50 [4] was 950 nM, the IC50 [5] was 4 nM and the IC50 [6] was 526 nM. The IC50 [7] was over 10000 nM, the inhibition [8] was 99% and the inhibition [9] was 76%. For the same compound, the inhibition [10] was 74%, the inhibition [11] was 68% and the inhibition [12] was 57%. The inhibition [13] was under 50%, the inhibition [14] was under 50% and the inhibition [15] was under 50%. The inhibition [16] was under 50%, the inhibition [17] was under 50% and the inhibition [18] was under 50%. The inhibition [19] was under 50%, the inhibition [20] was under 50% and the inhibition [21] was under 50%. It also gave an inhibition [22] of under 50%, an inhibition [23] of under 50% and an inhibition [24] of under 50%. It also gave an inhibition (Homo sapiens) of under 50%, an inhibition [25] of under 50% and an inhibition [26] of under 50%. For the same compound, the inhibition [27] was under 50%, the inhibition [28] was under 50% and the AUC(0-inf) [29] was 31700 ng·h/mL. For the same compound, the half-life [30] was 18 h, the clearance [31] was 3 mL/min/kg and the Papp B→A at 2 h [32] was 6 ×10⁻⁶ cm/s. For the same compound, the Activity (Mus musculus [33]) was “Active”, the Activity (Mus musculus [34]) was “Active” and the bioavailability [35] was 64.2%.
